Experimental data published in patent US5225437A, “1,2,4-trioxane compounds having antimalarial activity” (The Johns Hopkins University, priority 1992, dated 1993).
Entries after “also recorded” stand apart in the source; their conditions may differ. Where two headings read alike, the source gives them in different places.

Experiments:
[1] = test system: P. falciparum malaria parasite clones; assay: anti-malarial activity in words (overall, both P. falciparum clones)
[2] = test system: P. falciparum malaria parasite clone Sierra Leone (D-6); assay: in vitro susceptibility testing, uptake of tritiated hypoxanthine as index of inhibition of parasite growth, Sierra Leone (D-6) clone; conditions: Plasmodium falciparum; for IC50: read-out: D6 IC50
[3] = test system: P. falciparum malaria parasite clone Indochina (W-2); assay: in vitro susceptibility testing, uptake of tritiated hypoxanthine as index of inhibition of parasite growth, Indochina (W-2) clone; assay type: cell-based; conditions: Plasmodium falciparum; for IC50: read-out: W2 IC50
D-6 Sierra Leone Clone = conditions: cited from earlier work; for IC50: Table V, read-out: Fifty Percent Inhibitory Concentrations, D-6 Sierra Leone Clone; for Artemisinin Indices, D-6 Sierra Leone Clone: intrinsic equimolar activity relative to the simultaneous artemisinin control
W-2 Indochine Clone = conditions: cited from earlier work; for IC50: Table V, read-out: Fifty Percent Inhibitory Concentrations, W-2 Indochine Clone; for Artemisinin Indices, W-2 Indochine Clone: intrinsic equimolar activity relative to the simultaneous artemisinin control
[4] = test system: P. falciparum D-6 African Clone; assay: anti-malarial in vitro testing against P. falciparum clones, D-6 African clone; assay type: cell-based; conditions: Table VI, D-6 value over W-2 value
[5] = compared with known anti-malarial drugs
[6] = Table IV, W2, read-out: W2 IC90
[7] = Table III, INDOCHINA CLONE (W-2), read-out: IC90

SMILES | IC50 [2] [nM] | IC50 ([3]; Table IV, W2) [nM] | IC50 (D-6 Sierra Leone Clone) [nM] | Artemisinin Indices, D-6 Sierra Leone Clone (D-6 Sierra Leone Clone) | IC50 (W-2 Indochine Clone) [nM] | Artemisinin Indices, W-2 Indochine Clone (W-2 Indochine Clone) | IC90 [2] [nM] | also measured
CCN(CC)C(=O)OCCC1CCCC2CCC3(C)OOC12C(OC)O3 (stereo not shown) [Compound 34] | 0.39 | < 0.28 |  |  |  |  |  | anti-malarial activity / potency in words [1, 5]: comparable in potency to arteether; also recorded: higher potency than artemisinin; also recorded: particularly potent; IC90 ([2]; read-out: D6 IC90): 1.18 nM; IC90 [3, 6]: < 0.28 nM
CO[C@H]1O[C@@H]2O[C@@]3(C)CC[C@H]4[C@H](C)CC[C@@H]([C@H]1C)[C@@]24OO3 [Artemether] |  |  | 4.49 | 2.34 | 3.34 | 1.92 |  | 
CCOP(=O)(COCCC1CCCC2CCC3(C)OOC12C(OC)O3)OCC (stereo not shown) [Compound 103] | 3.03 |  |  |  |  |  |  | IC90 ([2]; read-out: D6 IC90): 29.9 nM; IC50 [3]: 0.96 nM; IC90 ([3]; read-out: W2 IC90): 8.2 nM
COC1OC2(C)CCC3CCCC(CCOC(=O)N(c4ccccc4)c4ccccc4)C31OO2 (stereo not shown) [Compound 31] | 0.27 | < 0.16 |  |  |  |  |  | anti-malarial activity / potency in words [1, 5]: substantial improvement over artemisinin; also recorded: comparable in potency to arteether; also recorded: higher potency than artemisinin; also recorded: particularly potent; IC90 ([2]; read-out: D6 IC90): 2.25 nM; IC90 [3, 6]: < 0.18 nM
CCN(CC)C(=O)c1ccc(C(=O)OCCC2CCCC3CCC4(C)OOC23C(OC)O4)cc1 (stereo not shown) [Compound 21] |  |  |  |  |  |  |  | anti-malarial activity / potency in words [1, 5]: substantial improvement over artemisinin; also recorded: comparable in potency to arteether; also recorded: comparable in potency to artemether; also recorded: considerably higher potency than the clinically used Chinese drug, artemisinin
CCc1nc(N)nc(N)c1-c1ccc(Cl)cc1 [Pyrimethamine] | 1.08 | > 250 | 0.4 | 26.11 | 176 | 0.03 |  | 
C[C@H]1[C@@H](O)O[C@@H]2O[C@@]3(C)CC[C@H]4[C@H](C)CC[C@@H]1[C@@]24OO3 [Dihydroartemisinin] |  |  | 1.83 | 5.75 | 1.79 | 3.58 |  | 
COCCC1CCCC2CCC3(C)OOC12C(OC)O3 (stereo not shown) [Compound 101] |  |  |  |  |  |  | 13.7 | IC90 [3, 7]: 4.62 nM
COC1OC2(C)CCC3CCCC(CCOS(=O)(=O)N(C)C)C31OO2 (stereo not shown) [Compound 27] |  |  |  |  |  |  | 30.2 | IC90 [3, 7]: 23 nM
COC1OC2(C)CCC3CCCC(CCOC(=O)N(C)C)C31OO2 (stereo not shown) [Compound 26] |  |  |  |  |  |  | 3.93 | anti-malarial activity / potency in words [1, 5]: particularly potent; IC90 [3, 7]: 1.29 nM
COC(=O)c1ccccc1S(=O)(=O)OCCC1CCCC2CCC3(C)OOC12C(OC)O3 (stereo not shown) [Compound 24] |  |  |  |  |  |  | 58.8 | IC90 [3, 7]: 19.7 nM
CCO[C@H]1O[C@@H]2O[C@@]3(C)CC[C@H]4[C@H](C)CC[C@@H]([C@H]1C)[C@@]24OO3 [Arteether (beta)] |  |  | 4.07 | 2.58 | 2.97 | 2.18 |  | 
COC1OC2(C)CCC3CCCC(CCOC(=O)c4ccc(C(=O)O)cc4)C31OO2 (stereo not shown) [Compound 36] | 256 | 24.2 |  |  |  |  | 115 | IC90 ([2]; read-out: D6 IC90): 516 nM; IC90 [3, 7]: 46.1 nM; IC90 [3, 6]: 979 nM
COC1OC2(C)CCC3CCCC(CCOC(=O)c4ccc(C(=O)OCCC5CCCC6CCC7(C)OOC56C(OC)O7)cc4)C31OO2 (stereo not shown) [Compound 22] |  |  |  |  |  |  | 857 | 
COC1OC2(C)CCC3CCCC(CCI)C31OO2 (stereo not shown) [Compound 301] | 1.14 | < 0.32 |  |  |  |  |  | IC90 ([2]; read-out: D6 IC90): 6.33 nM; IC90 [3, 6]: < 0.32 nM
COc1ncnc(NS(=O)(=O)c2ccc(N)cc2)c1OC [Sulfadoxine] |  |  | 89.4 | 0.11 | 80600 | < 0.01 |  | 

SMILES | IC50 [2] [nM] | IC50 ([3]; Table IV, W2) [nM] | IC50 (D-6 Sierra Leone Clone) [nM] | Artemisinin Indices, D-6 Sierra Leone Clone (D-6 Sierra Leone Clone) | IC50 (W-2 Indochine Clone) [nM] | Artemisinin Indices, W-2 Indochine Clone (W-2 Indochine Clone) | IC90 [2] [nM] | also measured
CCN(CC)CCCC(C)Nc1ccnc2cc(Cl)ccc12 (stereo not shown) [Chloroquine] | 1.21 |  | 10.8 | 0.97 | 100 | 0.06 |  | IC50 [3]: 61.7 nM; Ratio of D-6/W-2 [4]: 0.1
C=CCOCCC1CCCC2CCC3(C)OOC12C(OC)O3 (stereo not shown) [Compound 104] | 1.08 | 0.32 |  |  |  |  |  | anti-malarial activity / potency in words [1, 5]: particularly potent anti-malarial activity; IC90 ([2]; read-out: D6 IC90): 15.7 nM; IC90 [3, 6]: 2.37 nM
COC1OC2(C)CCC3CCCC(CCOC(=O)c4ccc(C(=O)OCCN(C)C)cc4)C31OO2 (stereo not shown) [Compound 20] |  |  |  |  |  |  | 20.4 | IC90 [3, 7]: 24.7 nM
C[C@@H]1CC[C@H]2[C@@H](C)C(=O)O[C@@H]3O[C@@]4(C)CC[C@@H]1[C@]32OO4 [Artemisinin, artemisinin] | 0.69 | 0.68 | 10.5 | 1.00 | 6.41 | 1.00 |  | Ratio of D-6/W-2 [4]: 2.4
COC(=O)c1ccc(C(=O)OCCC2CCCC3CCC4(C)OOC23C(OC)O4)cc1 (stereo not shown) [Compound 19] |  |  |  |  |  |  |  | anti-malarial activity / potency in words [1, 5]: substantial improvement over artemisinin; also recorded: comparable in potency to arteether; also recorded: comparable in potency to artemether; also recorded: considerably higher potency than the clinically used Chinese drug, artemisinin
COC1OC2(C)CCC3CCCC(CCOCc4ccccc4)C31OO2 (stereo not shown) [Compound 102] | 1.22 | 0.25 |  |  |  |  |  | anti-malarial activity / potency in words [1, 5]: particularly potent anti-malarial activity; IC90 ([2]; read-out: D6 IC90): 3.27 nM; IC90 [3, 6]: 1.53 nM
CCCCN(CCCC)CCC(O)c1cc2c(Cl)cc(Cl)cc2c2cc(C(F)(F)F)ccc12 (stereo not shown) [Halofantrine] |  |  | 7.8 | 1.35 | 0.76 | 8.43 |  | 
C=C[C@H]1C[N@@]2CC[C@H]1C[C@H]2[C@H](O)c1ccnc2ccc(OC)cc12 [Quinine] |  |  |  | 0.09 |  |  |  | 
CCO[C@@H]1O[C@@H]2O[C@@]3(C)CC[C@H]4[C@H](C)CC[C@@H]([C@H]1C)[C@@]24OO3 [Arteether (alpha)] |  |  | 4.18 | 2.52 | 3.07 | 2.08 |  | 
OC(c1cc(C(F)(F)F)nc2c(C(F)(F)F)cccc12)C1CCCCN1 (stereo not shown) [Mefloquine] | 3.53 | 0.11 | 33.4 | 0.31 | 5.75 | 1.11 |  | 
CCOP(=O)(OCC)OCCC1CCCC2CCC3(C)OOC12C(OC)O3 (stereo not shown) [Compound 28] |  |  |  |  |  |  | 0.99 | anti-malarial activity / potency in words [1]: substantial improvement over artemisinin; also recorded: comparable in potency to arteether; also recorded: higher potency than artemisinin; also recorded: particularly potent
COC1OC2(C)CCC3CCCC(CCOC(=O)CNC(=O)OC(C)(C)C)C31OO2 (stereo not shown) [Compound 25] |  |  |  |  |  |  | 4.43 | anti-malarial activity / potency in words [1, 5]: substantial improvement over artemisinin
COC1OC2(C)CCC3CCCC(CCOS(=O)(=O)c4cccc5c(N(C)C)cccc45)C31OO2 (stereo not shown) [Compound 32] | 5.16 | 1.04 |  |  |  |  |  | IC90 ([2]; read-out: D6 IC90): 10 nM; IC90 [3, 6]: 7.17 nM
C[C@H]1[C@@H](OCc2ccc(C(=O)O)cc2)O[C@@H]2O[C@@]3(C)CC[C@H]4[C@H](C)CC[C@@H]1[C@@]24OO3 [Artelinic Acid] |  |  | 9.73 | 1.08 | 3.3 | 1.94 |  | 
COC1OC2(C)CCC3CCCC(CCOS(=O)(=O)c4ccc(C)cc4)C31OO2 (stereo not shown) [Compound 23] |  |  |  |  |  |  | 19 | IC90 [3, 7]: 10.2 nM
COC1OC2(C)CCC3CCCC(CCOCc4c(C)noc4C)C31OO2 (stereo not shown) [Compound 105] | 1.82 | 0.34 |  |  |  |  |  | anti-malarial activity / potency in words [1, 5]: particularly potent anti-malarial activity; IC90 ([2]; read-out: D6 IC90): 19.1 nM; IC90 [3, 6]: 1.64 nM
